Measured values published in PMC8244865, “Recruitment of phospholipase Cγ1 to the non-structural membrane protein pK15 of Kaposi Sarcoma-associated herpesvirus promotes its Src-dependent phosphorylation” (PLoS Pathogens, 2021).

B1: pK15 CT^WT: pK15 cytoplasmic tail fused to GST at its N-terminal end, phosphorylated in vitro by Src (protein)
chain: SQLLNEVELQEVNRDPPNVFGYASILVSGAEESREPSPQPDQSGMSILRVDGGSAFRIDTAQAATQPTDDLYEEVLFPRN
modifications: tyrosine-phosphorylated in vitro by Src; sites not stated for this construct; left off: GST, N-terminal, kept

Key:
[1] = tested on: PLCγ1 tSH2 domain (Src-mediated phosphorylation, Y^783); test: in vitro Src kinase assay, 35mer-enhanced PLCγ1 tSH2 phosphorylation; type: biochemical; conditions: 1.25–5.0 μM 12mer, 2.5 μM 35mer, 0.085 μM Src, 45 min, 37°C; pY783 Western blot
Description: Fig 7 The pK15 CT domain enhances Src-mediated phosphorylation of the PLCγ1 tSH2 domain. (A) The purified PLCγ1 tSH2 domain (0.6 μM) was incubated with limiting amounts (0.085 μM) of recombinant purified Src kinase expressed in insect cells in the presence of increasing concentrations (1.25–5 μM) of phosphorylated peptides representing the last 12 (pK15 12mer) or 35 (pK15 35mer) amino acids of the pK15 cytoplasmic domain for 1 hour at 37°C. The reaction was stopped using SDS sample buffer and analysed by SDS-PAGE and Western blot using an antibody to the PLCγ1 pY^783 residue (top panel) or to the His tag on the recombinant tSH2 domain (bottom panel). […]
To test the impact of a pK15 CT fragment (pK15 CT^N2) or phosphorylated pK15 peptides representing the last 12 (DDLp[…]) or 35 ([…]pYEEVLFRN) amino acids of pK15 CT on the Src-mediated phosphorylation of the PLCγ1 tSH2 domain, GST-pK15CT^N2 was first phosphorylated with Src in vitro as described in the preceding paragraph. […] The reaction mix was then analysed by Western blot using an antibody to the phosphorylated Y^783 in the linker region of the PLCγ1 tSH2 domain and an antibody to the 5x His tag. […] Following a 45 min incubation at 37°C, the reaction mixture was analysed by Western blot as above.

[2] = tested on: PLCγ1 (transfected and endogenous, HEK-293T lysates); test: GST-pulldown, full length PLCγ1; type: binding; conditions: in vitro phosphorylated by Src; transfected and endogenous PLCγ1, HEK 293 lysates; Western blot
Description: Fig 2 K15 phosphorylation results in a stronger binding to PLCγ1. (A) An expression plasmid for an S-tagged full length PLCγ1 or the empty vector (EV) were transfected in HEK-293T cells. After 30h cells were lysed and a GST-pulldown assay was performed with GST-fused pK15 CT (WT), the pK15 CT Y^481F mutant (Y^481F) or GST that had been bound to glutathione beads and previously phosphorylated by GST-6xHis Src (+) or left unphosphorylated (-). Bound proteins were analysed by WB using antibodies to the S tag on PLCγ1 and pTyr. (B) Untransfected HEK-293T cells were lysed and a GST-pulldown assay with pre-phosphorylated (+) or unphosphorylated (-) GST-fused pK15 CT WT/Y^481F or GST was performed and analysed by WB as in (A). (C) An expression plasmid for an S-tagged PLCγ1 SA or the empty vector were transfected in HEK-293T cells. […]
HEK293T cells were washed once with cold PBS 30 hours after transfection, lysed in IP buffer (50 mM Tris pH7.6, 60 mM NaCl, 6.25 mM EDTA, 1% (v/v) glycerol, 0.04% (v/v) NP-40) on ice for 30 minutes, sonicated shortly and cleared by centrifugation for 10 minutes at 20.000g, 4°C. […] Beads were then washed 5 times in 500 μl IP buffer (or for purified proteins IP buffer with 200 mM NaCl), suspended in 10 μl of 5x Laemmli sample buffer (60 mM Tris pH6.8, 24% (v/v) glycerol, 2% (v/v) SDS, 5% (v/v) β-mercaptoethanol, 0.01% Bromphenol Blue) and analysed by western blot.

Row | Molecule | inhibition of 35mer-induced tSH2 phosphorylation [1] | interaction with PLCγ1 (GST-pulldown) [2]
1 | DDLpYEEVLFPRN [pK15 12mer, phosphorylated peptide representing the last 12 amino acids of pK15 CT (DDLp…)] | could inhibit the increased PLCγ1 tSH2 phosphorylation induced by the 35mer peptide | –
2 | B1 | – | substantial increase in its interaction with PLCγ1
